# Laboratory results as given in ChEMBL document CHEMBL5055643, “Sophoraflavanone G Resensitizes ABCG2-Overexpressing Multidrug-Resistant Non-Small-Cell Lung Cancer Cells to Chemotherapeutic Drugs” (J Nat Prod, 2021).
# Activity calls are given as the source filed them. No cut-off for these calls is given here.
# Tests used:
# [1] = Cytotoxicity against becatecarin-selected ABCG2-overexpressing human A549/Bec150 cells assessed as cell viability at 1 to 5 uM measured after 72 hrs by CCK8 assay; format: ADME, cell-based; conditions: dose 1-5 µM, read-out: Activity
# [2] = test system: KB 3-1; test: Chemo-sensitizing activity against human KB 3-1 cells assessed as reversal fold at 1 uM measured after 72 hrs in presence of colchicine by CCK8 assay relative to control; format: functional
# [3] = test system: A549; test: Chemo-sensitizing activity against human A549 cells assessed as reversal fold at 2 uM measured after 72 hrs in presence of mitoxantrone by CCK8 assay relative to control; format: functional
# [4] = test system: NCI-H460; test: Chemo-sensitizing activity against mitoxantrone-selected ABCG2-overexpressing human NCI-H460/MX20 cells assessed as reversal fold at 2 uM measured after 72 hrs in presence of topotecan by CCK8 assay relative to control; format: functional
# [5] = test system: HEK293; test: Chemo-sensitizing activity against ABCG2-overexpressing human HEK293/482R cells assessed as reversal fold at 5 uM measured after 72 hrs in presence of mitoxatrone by CCK8 assay relative to control; format: functional
# [6] = test system: NCI-H460; test: Chemo-sensitizing activity against human NCI-H460 cells assessed as reversal fold at 2 uM measured after 72 hrs in presence of SN-38 by CCK8 assay relative to control; format: functional
# [7] = target: T1, Broad substrate specificity ATP-binding cassette transporter ABCG2 (Homo sapiens, UniProt Q9UNQ0); test: Inhibition of ABCG2 in mitoxantrone-selected ABCG2-overexpressing human NCI-H460/MX20 cells assessed as increase in intracellular mitoxantrone accumulation incubated for 1 hr in presence of mitoxantrone by flow cytometry; format: cell-based
# T1 sequence (Q9UNQ0 whole entry): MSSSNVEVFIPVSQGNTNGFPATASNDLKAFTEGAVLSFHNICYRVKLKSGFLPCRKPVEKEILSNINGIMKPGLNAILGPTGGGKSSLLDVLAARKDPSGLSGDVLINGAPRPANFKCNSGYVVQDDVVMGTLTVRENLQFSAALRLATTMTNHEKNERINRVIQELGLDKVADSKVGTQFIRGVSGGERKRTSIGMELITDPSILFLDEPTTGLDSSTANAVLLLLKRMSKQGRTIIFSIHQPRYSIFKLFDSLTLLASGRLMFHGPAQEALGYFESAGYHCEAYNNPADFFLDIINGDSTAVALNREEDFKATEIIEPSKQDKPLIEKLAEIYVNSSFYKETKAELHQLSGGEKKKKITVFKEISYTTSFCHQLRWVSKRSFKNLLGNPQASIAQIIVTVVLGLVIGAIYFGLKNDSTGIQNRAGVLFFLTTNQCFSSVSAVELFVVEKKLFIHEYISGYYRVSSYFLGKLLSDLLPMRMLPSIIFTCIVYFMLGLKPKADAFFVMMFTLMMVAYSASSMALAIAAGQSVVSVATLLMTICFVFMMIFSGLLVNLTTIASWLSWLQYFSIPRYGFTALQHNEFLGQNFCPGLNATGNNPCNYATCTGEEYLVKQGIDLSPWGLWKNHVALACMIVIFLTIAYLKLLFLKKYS
# [8] = test system: A549; test: Chemo-sensitizing activity against becatecarin-selected ABCG2-overexpressing human A549/Bec150 cells assessed as reversal fold at 2 uM measured after 72 hrs in presence of SN-38 by CCK8 assay relative to control; format: functional
# [9] = test system: NCI-H460; test: Effect on ABCG2 protein expression in mitoxantrone-selected ABCG2-overexpressing human NCI-H460/MX20 cells at 1 to 5 uM incubated for 72 hrs by immunoblot analysis; format: functional, cell-based; conditions: dose 1-5 µM
# [10] = test system: NCI-H460; test: Chemo-sensitizing activity against mitoxantrone-selected ABCG2-overexpressing human NCI-H460/MX20 cells assessed as reversal fold at 5 uM measured after 72 hrs in presence of mitoxantrone by CCK8 assay relative to control; format: functional
# [11] = test system: NCI-H460; test: Chemo-sensitizing activity against human NCI-H460 cells assessed as reversal fold at 2 uM measured after 72 hrs in presence of topotecan by CCK8 assay relative to control; format: functional
# [12] = test system: A549; test: Chemo-sensitizing activity against becatecarin-selected ABCG2-overexpressing human A549/Bec150 cells assessed as reversal fold at 5 uM measured after 72 hrs in presence of topotecan by CCK8 assay relative to control; format: functional
# [13] = test system: HEK293; test: Chemo-sensitizing activity against human HEK293 cells assessed as reversal fold at 5 uM measured after 72 hrs in presence of mitoxatrone by CCK8 assay relative to control; format: functional
# [14] = test system: NCI-H460; test: Chemo-sensitizing activity against mitoxantrone-selected ABCG2-overexpressing human NCI-H460/MX20 cells assessed as reversal fold at 2 uM measured after 72 hrs in presence of SN-38 by CCK8 assay relative to control; format: functional
# [15] = Cytotoxicity against human A549 cells assessed as cell viability at 1 to 5 uM measured after 72 hrs by CCK8 assay; format: cell-based; conditions: dose 1-5 µM, read-out: Activity
# [16] = test system: OVCAR-8; test: Chemo-sensitizing activity against human OVCAR-8 cells assessed as reversal fold at 5 uM measured after 72 hrs in presence of vincristine by CCK8 assay relative to control; format: functional
# [17] = test system: HEK293; test: Chemo-sensitizing activity against human HEK293 cells assessed as reversal fold at 5 uM measured after 72 hrs in presence of topotecan by CCK8 assay relative to control; format: functional
# [18] = test system: A549; test: Chemo-sensitizing activity against human A549 cells assessed as reversal fold at 1 uM measured after 72 hrs in presence of SN-38 by CCK8 assay relative to control; format: functional
# [19] = Cytotoxicity against human NCI-H460 cells assessed as cell viability at 1 to 5 uM measured after 72 hrs by CCK8 assay; format: cell-based; conditions: dose 1-5 µM, read-out: Activity
# [20] = test system: HEK293; test: Cytotoxicity against ABCG2-overexpressing human HEK293/482R cells assessed as reduction in cell viability measured after 72 hrs by CCK8 assay; format: ADME, cell-based; conditions: HEK293, 72 h
# [21] = test system: A549; test: Chemo-sensitizing activity against becatecarin-selected ABCG2-overexpressing human A549/Bec150 cells assessed as reversal fold at 2 uM measured after 72 hrs in presence of topotecan by CCK8 assay relative to control; format: functional
# [22] = test system: OVCAR-8; test: Chemo-sensitizing activity against human OVCAR-8 cells assessed as reversal fold at 1 uM measured after 72 hrs in presence of vincristine by CCK8 assay relative to control; format: functional
# [23] = test system: ABCG2; test: Resistance factor, ratio of IC50 for becatecarin-selected ABCG2-overexpressing human A549/Bec150 cells to IC50 for human A549 cells; format: ADME; conditions: read-out: Ratio IC50
# [24] = test system: NCI-H460; test: Chemo-sensitizing activity against mitoxantrone-selected ABCG2-overexpressing human NCI-H460/MX20 cells assessed as reversal fold at 5 uM measured after 72 hrs in presence of SN-38 by CCK8 assay relative to control; format: functional
# [25] = test system: HEK293; test: Chemo-sensitizing activity against ABCG2-overexpressing human HEK293/482R cells assessed as reversal fold at 1 uM measured after 72 hrs in presence of mitoxatrone by CCK8 assay relative to control; format: functional
# [26] = test system: HEK293; test: Chemo-sensitizing activity against human HEK293 cells assessed as reversal fold at 1 uM measured after 72 hrs in presence of mitoxatrone by CCK8 assay relative to control; format: functional
# [27] = test system: OVCAR-8; test: Chemo-sensitizing activity against human OVCAR-8 cells assessed as reversal fold at 2 uM measured after 72 hrs in presence of paclitaxel by CCK8 assay relative to control; format: functional
smiles,measurement,setting,value
C=C(C)[C@H](CC=C(C)C)Cc1c(O)cc(O)c2c1O[C@H](c1ccc(O)cc1O)CC2=O [SOPHORAFLAVANONE G],"viability at 72 h, up to 5 µM",[1],> 90%
same,fold change (FC),[2],1
same,fold change (FC),[3],1.6
same,fold change (FC),[4],7.2
same,fold change (FC),[5],5.6
same,fold change (FC),[6],1.7
same,IC50,[7],2.12 µM
same,inhibition (INH),"[7]; human, nci-h460, 1 h, time 1 hrs",Dose-dependent effect
same,fold change (FC),[8],2.7
same,Activity,[9],inactive
same,fold change (FC),[10],7.6
same,fold change (FC),[11],2.1
same,fold change (FC),[12],2.9
same,fold change (FC),[13],1.1
same,fold change (FC),[14],3.7
same,"viability at 72 h, up to 5 µM",[15],> 90%
same,fold change (FC),[16],1.7
same,fold change (FC),[17],0.8
same,fold change (FC),[18],1
same,"viability at 72 h, 5 µM",[19],> 90%
same,IC50,[20],49.7 µM
same,fold change (FC),[21],1.8
same,fold change (FC),[22],1
same,selectivity ratio,[23],0.8
same,fold change (FC),[24],10.1
same,fold change (FC),[25],2.6
same,fold change (FC),[26],1
same,fold change (FC),[27],1
